Test results taken from patent US9518051B2, “Pyrroloquinoline alkaloids as antimalarial agents and process for the preparation thereof” (Council of Scientific & Industrial Research, priority 2012, dated 2016).

How the values were obtained:
[1] = system: Plasmodium falciparum 3D7 (chloroquine sensitive strain); test: Anti malarial activity in vitro on Plasmodium falciparum at erythrocyte stage; type: cell-based; details: compound in crude form
Protocol: In a preferred embodiment, the compound NCLite-M1 was tested for anti-malarial activity against a known parasite Plasmodium falciprum 3D7 was used, which is chloroquine sensitive strain and the results are tabulated herein.
This study was performed in vitro on Plasmodium falciparum at erythrocyte stage. The test protocol for testing antimalarial activity is from R. E. Desjardins, C. J. Canfield, J. D. Haynes and J. D. Chulay Antimicrob. Agents Chemother. 1979, 16, 710.
A known parasite 3D7 was used, which is Chloroquine sensitive strain. 2 mg of the compound NCLite-M1 which has a molecular weight of 326.35, was dissolved in 10 mL of EtOH and used as a stock. […] Further studies using highly pure compound and its soluble salts are planned.

| SMILES | melting point | further results |
| --- | --- | --- |
| Nc1ncnc2c1ncn2Cc1nc2ccccc2c2cc[nH]c12 [Aplidiopsamine A] | 229 to 231 °C | – |
| O=c1c2ccccc2ncn1Cc1nc2ccccc2c2cc[nH]c12 [NCLite-M1, 3-((3H-pyrrolo[2,3-c]quinolin-4-yl)methyl)quinazolin-4(3H)-one] | – | lowest concentration at which the compound is active ([1]; P. falciparum 3D7): 2 µmol; inhibition at 25 µM ([1]; Plasmodium falciparum, concentration 25 μM, P. falciparum 3D7, erythrocyte stage, read-out: % inhibition by NCLite-M1): 19.5%; inhibition at 50 µM ([1]; Plasmodium falciparum, concentration 50 μM, P. falciparum 3D7, erythrocyte stage, read-out: % inhibition by NCLite-M1): 77.2%; inhibition at 75 µM ([1]; Plasmodium falciparum, concentration 75 μM, P. falciparum 3D7, erythrocyte stage, read-out: % inhibition by NCLite-M1): 89.4%; % inhibition by NCLite-M1 ([1]; concentration 2-5 μM, P. falciparum 3D7, erythrocyte stage): 17.6% |
| Cc1nc2cc(Cl)ccc2c2ccn(S(=O)(=O)c3ccccc3)c12 [Table 2, entry 2, 7-chloro-4-methyl-3-(phenylsulfonyl)-3H-pyrrolo[2,3-c]quinoline] | 178 to 180 °C | – |
| N#Cc1ccc2nc(-c3ccccc3)c3ccccc3c2c1 [Table 2, entry 5, 6-phenylphenanthridine-2-carbonitrile] | 233 to 235 °C | – |
| N#Cc1ccc2[nH]c(-c3ccccc3)cc2c1 [Table 2, entry 6, 2-phenyl-1H-indole-5-carbonitrile] | 194 to 196 °C | – |
| Cc1nc2ccccc2c2ccn(S(=O)(=O)c3ccccc3)c12 [compound 3, 4-Methyl-3-(phenylsulfonyl)-3H-pyrrolo[2,3-c]quinoline] | 143 to 145 °C | – |
